A short description of this data set: Compatibility study of sodium picosulfate with citric acid. The format is physicochemical. Conditions: produced a wet mass with high known impurities. The source says:
As sodium picosulfate is having sensitivity towards an acidic nature ingredient, there is a need to formulate the composition of sodium picosulfate not in direct contact with the citric acid.

Each structure is given as a SMILES string.

Turning to `O=S(=O)(O)Oc1ccc(C(c2ccc(OS(=O)(=O)O)cc2)c2ccccn2)cc1` [sodium picosulfate], the “Compatibility / stability with citric acid” value is “not compatible or stable with citric acid physically and chemically”.
